The subject of test [1] is Human immunodeficiency virus 1. Kind of test: Tested for cytoprotection against production of HIV-1 p24. The test is classed as functional, organism-based.
Test [2] has as its system Human immunodeficiency virus 1. The experiment in a line: Effective concentration required for 50% production of p24 production. The test is classed as functional, organism-based.
Test [3] has as its system Human immunodeficiency virus 1. The experiment in a line: Compound was tested for inhibition of HIV-1 replication in human T-cell by using XTT assay; Moderately active. The test is classed as functional, organism-based.
Test [4] concerns Human immunodeficiency virus 1. Kind of test: Tested against zinc finger of the recombinant HIV-1 p7NC protein by using Trp residue for fluorometric measurements. It counts as functional.
Test [5] concerns Human immunodeficiency virus 1. The experiment in a line: Tested against zinc finger of the recombinant HIV-1 p7NC toluenesulfonamide) residue for fluorometric measurements. It counts as functional.
The test system of test [6] is Human immunodeficiency virus 1. The experiment in a line: Inhibition of HIV-1 replication in human T-cell by using XTT assay. It counts as functional.
Test [7] has as its system T-cell line. The experiment in a line: Compound was tested for inhibition of HIV-1 replication in human T-cell by using XTT assay; Active. It counts as functional, cell-based. In general terms: Tetrazolium dyes change colour on reduction, which living cells bring about.
Test [8] deals with Human immunodeficiency virus 1. The experiment in a line: Compound was tested for effective concentration required for 50% production of p24 production; NA = Not active. It counts as functional, organism-based.

Active and inactive are the calls of the source. No cut-off for these calls is given here.

Consider `CC1(C)CC2=NC(SSC3=C(C#N)C(c4ccc(F)cc4)C4=C(O)CC(C)(C)CC4=N3)=C(C#N)C(c3ccc(F)cc3)C2=C(O)C1` (stereo not given), for which the IC50 (in general, the point on the concentration scale where inhibition reaches its midpoint) in test [1] is more than 100 µM. Besides, the EC50 – broadly, the concentration that produces a half-maximal response – in test [2] was more than 100 µM. Further, in test [3], the Activity result is “Weak activity”. In addition, the “Decrease in RFU” value in test [4] is given as 78.1%. The “increase in RFU” value in test [5] is recorded as 0.3%. The TI50 in test [6] came to 3.2.
As for `COC(=S)SSC(=S)N(CC/N=C(/S)SSC(=S)OC)CC/N=C(\S)SSC(=S)OC`, the IC50 in test [1] was more than 100 µM. Besides, the EC50 in test [2] is more than 100 µM. Besides, the Activity entry in test [3] was “Weak activity”. The “Decrease in RFU” value in test [4] amounted to 37.7%. Also, in test [5], the “increase in RFU” value was found to be 10.6%. Further, in test [6], the TI50 is 2.6.
As for `Nc1cc(C(=O)O)ccc1SSc1ccc(C(=O)O)cc1N`, in test [1], the IC50 is more than 100 µM. Besides, in test [2], the EC50 is more than 100 µM. Also, in test [3], the Activity entry is “Weak activity”. Besides, the “Decrease in RFU” value in test [4] is 79.3%. The “increase in RFU” value in test [5] turned out to be 10.9%. Moreover, in test [6], the TI50 is recorded as more than 6.4.
In turn, `O=C(O)Cc1ccc(SSc2ccc(CC(=O)O)cc2)cc1` yielded an IC50 in test [1] of more than 100 µM. Besides, the EC50 in test [2] was more than 100 µM. The Activity result in test [3] was “Weak activity”. Further, the “Decrease in RFU” value in test [4] is given as 51.5%. Moreover, the “increase in RFU” value in test [5] is 10.6%. Further, the TI50 in test [6] is recorded as more than 8.7.
`NS(=O)(=O)c1ccc(SSc2ccc(S(N)(=O)=O)cc2[N+](=O)[O-])c([N+](=O)[O-])c1`: the Activity entry in test [3] was “Weak activity”. The compound further yielded a TI50 in test [6] of more than 5.8.
Take `CC(=O)NC1CN=C(SSC2=NCC(NC(C)=O)S2)S1` (stereo not given): the IC50 in test [1] was more than 100 µM. This compound also showed an EC50 in test [2] of more than 100 µM. Moreover, in test [3], the Activity entry was “Weak activity”. The “Decrease in RFU” value in test [4] is recorded as 77.8%. Also, the “increase in RFU” value in test [5] is 8%. Moreover, in test [6], the TI50 is reported as more than 5.3.
As for `O=C(O)c1cccc(SS(=O)(=O)c2cccc(C(=O)O)c2)c1`, the IC50 in test [1] was more than 100 µM. In addition, the EC50 in test [2] was 71 µM. In test [3], the Activity result was “Weak activity”. Also, the “Decrease in RFU” value in test [4] is on record as 91.2%. Moreover, the “increase in RFU” value in test [5] came to 21.1%. In addition, the TI50 in test [6] is 13.7.
In the case of `N=C(N)Nc1ccccc1SSc1ccccc1N=C(N)N`, the IC50 in test [1] is more than 100 µM. In addition, the midpoint of the response in test [2], the EC50, lay at 10 µM. In test [7], the outcome was Active. Moreover, the “Decrease in RFU” value in test [4] stood at 31.3%. In addition, the “increase in RFU” value in test [5] amounted to 1.6%. Besides, the TI50 in test [6] is 32.
Take `CC1(C)CC2=NC(SSC3=C(C#N)C(c4ccc(Br)cc4)C4=C(O)CC(C)(C)CC4=N3)=C(C#N)C(c3ccc(Br)cc3)C2=C(O)C1` (stereo not given): in test [1], the IC50 was more than 100 µM. In test [2], this compound came in with an EC50 of more than 100 µM. Further, in test [3], the Activity entry was “Weak activity”. In addition, in test [4], the “Decrease in RFU” value is 24.8%. Besides, in test [5], the “increase in RFU” value is reported as 0.3%. Besides, the TI50 in test [6] is 3.4.
The compound `Cc1cc(C(=O)O)c(C)cc1SSc1cc(C)c(C(=O)O)cc1C` displayed an IC50 in test [1] of more than 100 µM. The EC50 in test [2] worked out at 32 µM. The Activity entry in test [3] is “Weak activity”. The Decrease in RFU in test [4] worked out at 76.1%. Besides, the “increase in RFU” value in test [5] came out at 15.7%. The same compound had a TI50 in test [6] of 3.6.
In the case of `O=S(=O)(SC1=NCCN1)c1ccccc1`, the IC50 in test [1] was more than 100 µM. For the same compound, in test [2], the EC50 was found to be 37.2 µM. In addition, in test [3], the Activity result was “Weak activity”. Besides, the “Decrease in RFU” value in test [4] came out at 76.1%. The “increase in RFU” value in test [5] was found to be 15.7%. Moreover, in test [6], the TI50 amounted to 4.3.
`COc1cc(SSc2cc(OC)cc([N+](=O)[O-])c2N)c(N)c([N+](=O)[O-])c1` yielded an IC50 in test [1] of more than 100 µM. This compound had an EC50 in test [2] of 7.5 µM. For the same compound, in test [3], the Activity entry was “Weak activity”. In addition, the “Decrease in RFU” value in test [4] worked out at 80.5%. The “increase in RFU” value in test [5] was 0%. The same compound registered a TI50 in test [6] of 8.5.
`Nc1cc(S(N)(=O)=O)ccc1SSc1ccc(S(N)(=O)=O)cc1N` yielded a half-maximal inhibitory concentration (IC50) in test [1] of 100 µM. Also, the EC50 in test [2] was more than 100 µM. In test [3], the Activity result was “Weak activity”. Besides, the “Decrease in RFU” value in test [4] is listed as 81.8%. For the same compound, the “increase in RFU” value in test [5] worked out at 24.4%. For the same compound, in test [6], the TI50 was determined as 14.9.
Turning to `CC(=O)NCCSS(=O)(=O)CCCCS(=O)(=O)SCCNC(C)=O`, the IC50 in test [1] was more than 100 µM. In test [2], this compound returned an EC50 of more than 100 µM. Further, in test [3], the Activity result is “Weak activity”. For the same compound, the “Decrease in RFU” value in test [4] is 82.5%. In test [5], the “increase in RFU” value is 32.8%. Also, the TI50 in test [6] is more than 1.6.
`Nc1ccc(S(N)(=O)=O)cc1SSc1cc(S(N)(=O)=O)ccc1N` came in with an IC50 in test [1] of 97 µM. In addition, in test [2], the EC50 was more than 100 µM. For the same compound, the Activity entry in test [3] was “Weak activity”. The “Decrease in RFU” value in test [4] is given as 52.1%. The “increase in RFU” value in test [5] stood at 26%. In test [6], this compound showed a TI50 of more than 14.2.
In the case of `NC(=O)CSSCC(N)=O`, in test [1], the IC50 was more than 100 µM. This compound came in with an EC50 in test [2] of more than 100 µM. Also, the Activity entry in test [3] is “Weak activity”. In addition, the “Decrease in RFU” value in test [4] came to 2.1%. Moreover, in test [5], the “increase in RFU” value came to 1.2%. In test [6], this compound yielded a TI50 of 6.5.
For the compound `CNCCSS(=O)(=O)CCNC`, the Activity result in test [3] is “Weak activity”. In addition, the TI50 in test [6] is more than 1.8.
In the case of `COS(=O)CCOC(=O)c1ccccc1SSc1ccccc1C(=O)OCCS(=O)OC` (stereo not given), the EC50 entry in test [8] is given as “Not Active”. Also, in test [3], the Activity result is “Weak activity”. The same compound registered a TI50 in test [6] of more than 2.1.
As to `O=C(N/N=C\c1ccc(Cl)cc1Cl)c1ccccc1SSc1ccccc1C(=O)N/N=C\c1ccc(Cl)cc1Cl`, the IC50 in test [1] was more than 100 µM. In test [2], this compound yielded an EC50 of 3.5 µM. The outcome in test [7] was Active. Further, the “Decrease in RFU” value in test [4] turned out to be 31.3%. Moreover, the “increase in RFU” value in test [5] was found to be 1.6%. Moreover, in test [6], the TI50 is more than 15.9.
As to `O=C(O)c1ccccc1SSc1ccccc1C(=O)O`, the IC50 in test [1] is more than 100 µM. Besides, the EC50 in test [2] turned out to be 57.5 µM. Also, the Activity result in test [3] was “Weak activity”. In test [4], the “Decrease in RFU” value was 6%. In test [5], the “increase in RFU” value is 9.8%. In test [6], this compound registered a TI50 of more than 1.7.
In test [1], `NNC(=O)c1ccccc1SSc1ccccc1C(=O)NN` showed an IC50 of 96 µM. Also, the EC50 in test [2] stood at 21 µM. In addition, the Activity entry in test [3] was “Weak activity”. Also, in test [4], the “Decrease in RFU” value came out at 80.9%. Besides, the “increase in RFU” value in test [5] was 28.5%. The same compound gave a TI50 in test [6] of 5.
For `Cc1cc(S(=O)(=O)C2=NC(Nc3ccccc3)NN2)c(SSc2cc(Cl)c(C)cc2S(=O)(=O)C2=NC(Nc3ccccc3)NN2)cc1Cl` (stereo not given), in test [1], the IC50 is more than 100 µM. The same compound gave an EC50 in test [2] of 80 µM. The Activity entry in test [3] was “Weak activity”. The “Decrease in RFU” value in test [4] was found to be 92.1%. In test [5], the “increase in RFU” value came out at 1.5%. Besides, the TI50 in test [6] is 15.7.
Consider `O=C(O)c1ccc(SSc2ccc(C(=O)O)cc2)cc1`, for which the IC50 in test [1] is more than 100 µM. This compound also gave an EC50 in test [2] of more than 100 µM. Moreover, the Activity entry in test [3] was “Weak activity”. The “Decrease in RFU” value in test [4] is on record as 62.5%. For the same compound, in test [5], the “increase in RFU” value came to 22.3%. For the same compound, the TI50 in test [6] is given as more than 1.6.
In the case of `Cc1cc(C)c(C(=O)O)c(SSc2cc(C)cc(C)c2C(=O)O)c1`, the EC50 entry in test [8] is on record as “Not Active”. The Activity entry in test [3] was “Weak activity”. This compound came in with a TI50 in test [6] of 2.7.

For the origin of these results see ChEMBL document CHEMBL1129635, “Evaluation of selected chemotypes in coupled cellular and molecular target-based screens identifies novel HIV-1 zinc finger inhibitors” (J Med Chem, 1996).
